ChEMBL document CHEMBL5579829, “Discovery of a potent CDKs/FLT3 PROTAC with enhanced differentiation and proliferation inhibition for AML” (Eur J Med Chem, 2024)
pIC50: −log10 of the molar value.

Legend:
HL-60 [1] = assay: Antiproliferative activity against human HL-60 cells measured after 1 to 3 days by CCK-8 assay; format: functional, cell-based
[2] = target: T1, Protein cereblon/Cyclin-dependent kinase 2 (Homo sapiens, UniProt P24941+Q96SW2); assay: Protac activity at CRBN/CDK2 in human HL-60 cells assessed as induction of CDK2 degradation by Western blot analysis; format: cell-based
[3] = target: T1, Protein cereblon/Cyclin-dependent kinase 2; assay: Protac activity at CRBN/CDK2 in human HL-60 cells assessed as induction of CDK2 degradation by Western blot analysis relative to control; format: cell-based
HL-60 [4] = assay: Induction of pro-differentiation of human HL-60 cells assessed as CD11b expression at 500 nM measured after 3 days by immunostaining-based flow cytometry (reference value: 8.32 to 10.55%); format: functional; conditions: time 3 day
HL-60 [5] = assay: Induction of pro-differentiation of human HL-60 cells assessed as CD11b expression at 500 nM measured after 5 days by immunostaining-based flow cytometry (reference value: 10.08 to 10.33%); format: functional; conditions: time 5 day
[6] = target: T1, Protein cereblon/Cyclin-dependent kinase 2; assay: Protac activity at CRBN/CDK2 in human Kasumi 1 cells assessed as induction of CDK2 degradation measured after 48 hrs by Western blot analysis; format: cell-based
[7] = target: Protein cereblon/Cyclin-dependent kinase 9 (Homo sapiens, UniProt P50750+Q96SW2); assay: Protac activity at CRBN/CDK9 in human OVCAR-8 cells assessed as induction of CDK9 degradation measured after 6 hrs by Western blot analysis; format: cell-based
Sequence of Protein cereblon/Cyclin-dependent kinase 9 (P50750 whole entry): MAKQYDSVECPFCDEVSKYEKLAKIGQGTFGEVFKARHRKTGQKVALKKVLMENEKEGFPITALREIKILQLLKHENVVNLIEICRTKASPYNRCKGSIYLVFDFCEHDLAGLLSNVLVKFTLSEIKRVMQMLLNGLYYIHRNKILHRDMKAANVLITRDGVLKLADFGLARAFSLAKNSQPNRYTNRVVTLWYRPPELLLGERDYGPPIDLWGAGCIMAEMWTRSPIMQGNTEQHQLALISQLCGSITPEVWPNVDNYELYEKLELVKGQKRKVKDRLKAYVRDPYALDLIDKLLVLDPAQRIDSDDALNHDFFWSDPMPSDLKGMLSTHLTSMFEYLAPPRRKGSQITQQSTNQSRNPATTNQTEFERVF
Sequence of Protein cereblon/Cyclin-dependent kinase 9 (Q96SW2 whole entry): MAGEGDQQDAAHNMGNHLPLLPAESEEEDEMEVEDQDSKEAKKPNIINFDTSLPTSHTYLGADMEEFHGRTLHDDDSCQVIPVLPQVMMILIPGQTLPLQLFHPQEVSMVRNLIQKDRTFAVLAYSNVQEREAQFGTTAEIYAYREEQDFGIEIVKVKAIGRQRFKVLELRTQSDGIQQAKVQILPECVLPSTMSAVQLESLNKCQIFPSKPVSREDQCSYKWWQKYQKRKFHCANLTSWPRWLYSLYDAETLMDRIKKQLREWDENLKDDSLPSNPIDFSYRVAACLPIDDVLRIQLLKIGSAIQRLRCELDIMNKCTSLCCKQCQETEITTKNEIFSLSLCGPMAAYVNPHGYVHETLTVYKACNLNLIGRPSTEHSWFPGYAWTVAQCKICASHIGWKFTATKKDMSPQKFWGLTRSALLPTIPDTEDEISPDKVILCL

[8] = target: T1, Protein cereblon/Cyclin-dependent kinase 2; assay: Protac activity at CRBN/CDK2 in human OVCAR-8 cells assessed as induction of CDK2 degradation measured after 6 hrs by Western blot analysis; format: cell-based
[9] = target: von Hippel-Lindau disease tumor suppressor/Receptor-type tyrosine-protein kinase FLT3 (Homo sapiens, UniProt P36888+P40337); assay: Protac activity at VHL/FLT3-ITD (unknown origin) assessed as induction of FLT3 degradation
Sequence of von Hippel-Lindau disease tumor suppressor/Receptor-type tyrosine-protein kinase FLT3 (P36888 whole entry, looked up, change not shown): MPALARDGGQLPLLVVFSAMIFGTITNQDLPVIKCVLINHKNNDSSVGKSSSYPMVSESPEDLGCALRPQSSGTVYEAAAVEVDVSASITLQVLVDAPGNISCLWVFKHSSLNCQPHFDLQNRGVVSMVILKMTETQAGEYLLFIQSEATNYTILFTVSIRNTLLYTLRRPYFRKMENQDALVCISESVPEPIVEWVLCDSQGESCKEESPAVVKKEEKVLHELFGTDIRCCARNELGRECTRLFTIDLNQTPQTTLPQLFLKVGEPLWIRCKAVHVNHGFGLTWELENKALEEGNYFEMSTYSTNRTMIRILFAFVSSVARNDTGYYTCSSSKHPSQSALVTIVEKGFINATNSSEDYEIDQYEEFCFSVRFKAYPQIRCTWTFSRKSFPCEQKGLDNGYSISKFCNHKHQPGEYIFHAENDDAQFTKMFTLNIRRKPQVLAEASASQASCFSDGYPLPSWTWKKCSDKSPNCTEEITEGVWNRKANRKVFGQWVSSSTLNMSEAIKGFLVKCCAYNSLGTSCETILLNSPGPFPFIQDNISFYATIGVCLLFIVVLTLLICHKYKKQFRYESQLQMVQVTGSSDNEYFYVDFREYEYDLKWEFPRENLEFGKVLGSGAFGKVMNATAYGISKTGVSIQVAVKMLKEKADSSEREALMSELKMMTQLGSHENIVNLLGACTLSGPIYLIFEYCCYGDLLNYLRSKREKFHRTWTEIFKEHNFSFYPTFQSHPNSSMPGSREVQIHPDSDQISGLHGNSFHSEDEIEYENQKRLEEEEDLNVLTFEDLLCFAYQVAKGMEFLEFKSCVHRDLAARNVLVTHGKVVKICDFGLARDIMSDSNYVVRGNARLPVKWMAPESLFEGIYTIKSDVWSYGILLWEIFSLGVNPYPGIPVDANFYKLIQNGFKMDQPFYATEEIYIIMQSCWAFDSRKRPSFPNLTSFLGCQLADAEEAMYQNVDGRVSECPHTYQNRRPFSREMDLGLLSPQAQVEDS
Sequence of von Hippel-Lindau disease tumor suppressor/Receptor-type tyrosine-protein kinase FLT3 (P40337 whole entry, looked up, change not shown): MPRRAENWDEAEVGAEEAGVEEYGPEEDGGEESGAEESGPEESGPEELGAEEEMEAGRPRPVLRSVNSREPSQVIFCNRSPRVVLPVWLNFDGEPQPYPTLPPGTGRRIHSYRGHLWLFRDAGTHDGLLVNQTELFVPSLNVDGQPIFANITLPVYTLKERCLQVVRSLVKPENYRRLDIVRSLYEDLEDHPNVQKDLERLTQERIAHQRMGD

[10] = target: Protein cereblon/Cyclin-dependent kinase 4 (Homo sapiens, UniProt P11802+Q96SW2); assay: Protac activity at CRBN/CDK4 in human MDA-MB-231 cells assessed as induction of CDK4 degradation measured after 18 hrs by Western blot analysis; format: cell-based
Sequence of Protein cereblon/Cyclin-dependent kinase 4 (P11802 whole entry): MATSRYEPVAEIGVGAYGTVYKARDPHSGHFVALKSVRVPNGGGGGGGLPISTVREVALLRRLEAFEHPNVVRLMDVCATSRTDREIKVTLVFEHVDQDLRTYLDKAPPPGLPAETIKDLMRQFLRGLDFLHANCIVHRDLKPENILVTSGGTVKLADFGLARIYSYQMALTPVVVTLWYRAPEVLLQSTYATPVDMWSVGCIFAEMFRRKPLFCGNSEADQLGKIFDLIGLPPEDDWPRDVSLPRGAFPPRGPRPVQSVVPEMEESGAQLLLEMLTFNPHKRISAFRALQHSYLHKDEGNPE
Sequence of Protein cereblon/Cyclin-dependent kinase 4 (Q96SW2 whole entry): as the sequence (Q96SW2 whole entry) above

[11] = target: Protein cereblon/Cyclin-dependent kinase 6 (Homo sapiens, UniProt Q00534+Q96SW2); assay: Protac activity at CRBN/CDK6 in human MDA-MB-231 cells assessed as induction of CDK6 degradation measured after 18 hrs by Western blot analysis; format: cell-based
Sequence of Protein cereblon/Cyclin-dependent kinase 6 (Q00534 whole entry): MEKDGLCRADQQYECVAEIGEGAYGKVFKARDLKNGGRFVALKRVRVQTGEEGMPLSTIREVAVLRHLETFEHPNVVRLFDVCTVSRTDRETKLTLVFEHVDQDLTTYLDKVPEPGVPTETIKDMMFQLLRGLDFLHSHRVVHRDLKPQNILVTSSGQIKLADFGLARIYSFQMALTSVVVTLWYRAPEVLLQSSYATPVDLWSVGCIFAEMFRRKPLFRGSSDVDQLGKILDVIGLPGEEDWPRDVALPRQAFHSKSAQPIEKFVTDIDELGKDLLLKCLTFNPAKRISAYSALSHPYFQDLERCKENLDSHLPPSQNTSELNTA
Sequence of Protein cereblon/Cyclin-dependent kinase 6 (Q96SW2 whole entry): as the sequence (Q96SW2 whole entry) above

| pIC50 (HL-60 [1]) | DC50 [2] [nM] | Emax [3] [%] | SMILES | other results |
| --- | --- | --- | --- | --- |
| 6.87 | – | – | O=C(NC1CCNCC1)c1n[nH]cc1NC(=O)c1c(Cl)cccc1Cl [AT-7519] | – |
| 7.75 | 26.1 | 72.8 | O=C1CCC(N2C(=O)c3ccc(N4CC(N5CCC(NC(=O)c6n[nH]cc6NC(=O)c6c(Cl)cccc6Cl)CC5)C4)cc3C2=O)C(=O)N1 (stereo not drawn) | – |
| – | 93.3 | 59.3 | O=C1CCC(N2C(=O)c3ccc(N4CCC(C(=O)N5CCC(NC(=O)c6n[nH]cc6NC(=O)c6c(Cl)cccc6Cl)CC5)CC4)cc3C2=O)C(=O)N1 (stereo not drawn) | – |
| – | > 100 | 9.07 | O=C1CCC(N2C(=O)c3ccc(N4CC(CN5CCC(CN6CCC(NC(=O)c7n[nH]cc7NC(=O)c7c(Cl)cccc7Cl)CC6)CC5)C4)cc3C2=O)C(=O)N1 (stereo not drawn) | – |
| – | > 100 | – | O=C1CCC(N2C(=O)c3ccc(N4CCC(C(=O)N5CCC(N6CCC(NC(=O)c7n[nH]cc7NC(=O)c7c(Cl)cccc7Cl)CC6)CC5)CC4)cc3C2=O)C(=O)N1 (stereo not drawn) | – |
| – | > 100 | 34.2 | O=C1CCC(N2C(=O)c3ccc(N4CC(C(=O)N5CCC(NC(=O)c6n[nH]cc6NC(=O)c6c(Cl)cccc6Cl)CC5)C4)cc3C2=O)C(=O)N1 (stereo not drawn) | – |
| – | > 100 | 43.3 | O=C1CCC(N2C(=O)c3ccc(N4CC(CN5CCC(N6CCC(NC(=O)c7n[nH]cc7NC(=O)c7c(Cl)cccc7Cl)CC6)CC5)C4)cc3C2=O)C(=O)N1 (stereo not drawn) | – |
| – | > 100 | 47.9 | O=C1CCC(N2C(=O)c3ccc(N4CCC(C(=O)N5CCN(Cc6ccc(NC(=O)c7n[nH]cc7Nc7ncnc8[nH]ccc78)cc6)CC5)CC4)cc3C2=O)C(=O)N1 (stereo not drawn) | – |
| 7.94 | 11.2 | 65.8 | O=C1CCC(N2C(=O)c3ccc(N4CC(CN5CCC(CCN6CCC(NC(=O)c7n[nH]cc7NC(=O)c7c(Cl)cccc7Cl)CC6)CC5)C4)cc3C2=O)C(=O)N1 (stereo not drawn) | – |
| < 6.00 | – | – | Cc1ccsc1C(=O)n1nc(Nc2ccc(S(=O)(=O)NCCOCc3cn(CCOCCOCCNc4cccc5c4C(=O)N(C4CCC(=O)NC4=O)C5=O)nn3)cc2)nc1N (stereo not drawn) | Activity (HL-60 [4]): 26.84%; Activity (HL-60 [5]): 34.38%; DC50 [6]: 61 nM |
| – | – | – | O=C(CCC(=O)N1CCN(Cc2ccc(NC(=O)c3n[nH]cc3Nc3ncnc4[nH]ccc34)cc2)CC1)NCCNc1cccc2c1C(=O)N(C1CCC(=O)NC1=O)C2=O (stereo not drawn) | DC50 [7]: 33 nM; DC50 [8]: 62 nM |
| – | – | – | CCc1nc(C(N)=O)c(Nc2ccc(N3CCN(CCC4CCN(CC(=O)N[C@H](C(=O)N5C[C@H](O)C[C@H]5C(=O)N[C@@H](C)c5ccc(-c6scnc6C)cc5)C(C)(C)C)CC4)CC3)c(OC)c2)nc1NC1CCOCC1 | DC50 [9]: 7.62 nM |
| – | > 100 | – | O=C1CCC(N2C(=O)c3ccc(N4CCC(CN5CCC(CN6CCC(NC(=O)c7n[nH]cc7NC(=O)c7c(Cl)cccc7Cl)CC6)CC5)C4)cc3C2=O)C(=O)N1 (stereo not drawn) | – |
| 7.87 | 1.23 | 58.8 | O=C1CCC(N2C(=O)c3ccc(N4CC(CN5CCN(Cc6ccc(NC(=O)c7n[nH]cc7Nc7ncnc8[nH]ccc78)cc6)CC5)C4)cc3C2=O)C(=O)N1 (stereo not drawn) | – |
| 7.35 | 1.17 | 75.8 | O=C1CCC(N2C(=O)c3ccc(N4CCC(CN5CCC(NC(=O)c6n[nH]cc6NC(=O)c6c(Cl)cccc6Cl)CC5)CC4)cc3C2=O)C(=O)N1 (stereo not drawn) | – |
| – | > 100 | – | O=C1CCC(N2C(=O)c3ccc(N4CC(C(=O)N5CCC(N6CCC(NC(=O)c7n[nH]cc7NC(=O)c7c(Cl)cccc7Cl)CC6)CC5)C4)cc3C2=O)C(=O)N1 (stereo not drawn) | – |
| – | > 100 | – | O=C1CCC(N2C(=O)c3ccc(N4CCC(CN5CCC(N6CCC(NC(=O)c7n[nH]cc7NC(=O)c7c(Cl)cccc7Cl)CC6)CC5)CC4)cc3C2=O)C(=O)N1 (stereo not drawn) | – |
| 7.62 | 26.5 | 54.9 | O=C1CCC(N2C(=O)c3ccc(N4CCC(CCN5CCC(NC(=O)c6n[nH]cc6NC(=O)c6c(Cl)cccc6Cl)CC5)CC4)cc3C2=O)C(=O)N1 (stereo not drawn) | – |
| 7.93 | 1.63 | 76.1 | O=C1CCC(N2C(=O)c3ccc(N4CCC(CN5CCN(Cc6ccc(NC(=O)c7n[nH]cc7Nc7ncnc8[nH]ccc78)cc6)CC5)C4)cc3C2=O)C(=O)N1 (stereo not drawn) | – |
| 7.85 | 7.13 | 59.1 | O=C1CCC(N2C(=O)c3ccc(N4CCC(N5CCC(NC(=O)c6n[nH]cc6NC(=O)c6c(Cl)cccc6Cl)CC5)C4)cc3C2=O)C(=O)N1 (stereo not drawn) | – |
| 7.61 | 2.8 | 79.2 | O=C1CCC(N2C(=O)c3ccc(N4CCC(N5CCC(NC(=O)c6n[nH]cc6NC(=O)c6c(Cl)cccc6Cl)CC5)CC4)cc3C2=O)C(=O)N1 (stereo not drawn) | – |
| – | > 100 | 43.5 | O=C1CCC(N2C(=O)c3ccc(N4CCC(CN5CCC(CCN6CCC(NC(=O)c7n[nH]cc7NC(=O)c7c(Cl)cccc7Cl)CC6)CC5)CC4)cc3C2=O)C(=O)N1 (stereo not drawn) | – |
| – | > 100 | 31.8 | O=C1CCC(N2C(=O)c3ccc(N4CCC(CN5CCC(CN6CCC(NC(=O)c7n[nH]cc7NC(=O)c7c(Cl)cccc7Cl)CC6)CC5)CC4)cc3C2=O)C(=O)N1 (stereo not drawn) | – |
| – | > 100 | 28.9 | O=C1CCC(N2C(=O)c3ccc(N4CCC(CN5CCC(N6CCC(NC(=O)c7n[nH]cc7NC(=O)c7c(Cl)cccc7Cl)CC6)CC5)C4)cc3C2=O)C(=O)N1 (stereo not drawn) | – |
| 7.69 | 13 | 63.2 | O=C1CCC(N2C(=O)c3ccc(N4CC(CN5CCC(NC(=O)c6n[nH]cc6NC(=O)c6c(Cl)cccc6Cl)CC5)C4)cc3C2=O)C(=O)N1 (stereo not drawn) | – |
| – | > 100 | 38.9 | O=C1CCC(N2C(=O)c3ccc(N4CCC(CN5CCC(CCN6CCC(NC(=O)c7n[nH]cc7NC(=O)c7c(Cl)cccc7Cl)CC6)CC5)C4)cc3C2=O)C(=O)N1 (stereo not drawn) | – |
| 7.39 | 4.71 | 67.3 | O=C1CCC(N2C(=O)c3ccc(N4CCC(CN5CCC(NC(=O)c6n[nH]cc6NC(=O)c6c(Cl)cccc6Cl)CC5)C4)cc3C2=O)C(=O)N1 (stereo not drawn) | – |
| 7.05 | – | – | CN1CCN(Cc2ccc(NC(=O)c3n[nH]cc3Nc3ncnc4[nH]ccc34)cc2)CC1 | – |
| – | – | – | CC(=O)c1c(C)c2cnc(Nc3ccc(N4CCN(Cc5cn(CCCCCC(=O)Nc6cccc7c6C(=O)N(C6CCC(=O)NC6=O)C7=O)nn5)CC4)cn3)nc2n(C2CCCC2)c1=O (stereo not drawn) | DC50 [10]: 12.9 nM; DC50 [11]: 34.1 nM |
